Laboratory results published in patent US20160144021A1, “Vaccine Composition And Method Of Use” (MEDIMMUNE, LLC, priority 2013, published 2016).
Read-outs that look alike come from different tables or passages of the source.

Tests used:
RSV sF = assay: Serum RSV F-specific IgG, IgG1, IgG2a ELISA, highly seropositive BALB/c mice; assay type: in vivo; conditions: day 84
Experimental: One hundred three female BALB/c mice (Charles River), ages 6-8 weeks old, were divided into 13 groups. Group 1 had 7 mice and groups 2 through 13 had 8 mice. Following anaesthetization groups 1 through 12 were dosed with 1×10^6 plaque forming units (PFU) in 100 μL of live RSV via an intranasal (IN) route on Day 0 and Day 35. Group 13 was not exposed to RSV. On Day 56, groups 1 through 11 were immunized with placebo (PBS) or vaccine article via an intramuscular (IM) route following anesthesia with isoflurane. The vaccine articles were formulated in a total of 100 μL with 50 μL given in each hind limb. Group 12 was anesthetized with isoflurane and immunized with 1×10^6 PFU in 100 μL of live RSV via an IN route. […] Sera were obtained from retro orbital blood collection at study days 0, 28, 56 70 and 84, separated from whole blood and stored at −20° C. until evaluated. Spleens from 4 animals in each group were harvested for T cell assays on Day 67, 11 days post immunization, or at day 88, 4 days post challenge. Lung cytokines quantified at 4 days after challenge in individual lung homogenates by luminex assay (Milipore).

RSV sF protein [1] = assay: IFNγ ELISPOT of splenocytes, naive Sprague Dawley rats; assay type: in vivo; conditions: Day 46, 4 days post RSV challenge
Experimental: Systemic cellular immune responses to vaccination were evaluated in all available animals at Day 46, 4 days post RSV challenge. For each of the groups, individual splenocyte samples were prepared. T-cell readouts were assessed by ELISPOT counts of IFNγ-secreting cells following a 36-48 hour restimulation with RSV sF. Significance was calculated using GraphPad Prism 1-way ANOVA with either Tukey or Bonferroni post test with a significance cutoff of p<0.05.

RSV A2 = assay: Lung and nose RSV titers after challenge, vaccinated Sprague Dawley rats; assay type: in vivo; conditions: 10 or 100 μg RSV sF, 4 days post challenge
Experimental: In a subsequent study, the immunogenicity and protection following a prime-boost regimen of RSV-SF was evaluated. 40 naive female Sprague Dawley rats were divided into designated vaccine cohorts of 5-6 animals per cohort. Briefly, test groups were given RSV sF (10 μg or 100 μg per animal) without adjuvant or RSV sF (10 μg or 100 μg per animal) with GLA-SE (2.5 μg in 2% SE). Negative control groups were dosed with placebo (PBS buffer) or adjuvant GLA-SE (2.5 μg/2%) without RSV sF. […] Groups 1-6 were inoculated IM with 500 μL of designated vaccine article on Day 0 and Day 22, while Group 7 was inoculated IN with 200 μL of RSV A2 virus on day 0 only. […] Rats were euthanized at 4 days post challenge on Day 46, the day of peak viral replication determined from Study 1. Lungs (excluding 1 lobe which was formalin-fixed) and noses were homogenized and quantified for viral titers.

RSV sF protein [2] = test system: RSV sF protein

In the case of “RSV sF: RSV soluble F protein, amino acids 1-524 of the RSV A2 F sequence lacking the transmembrane domain, given without adjuvant”, the “Th bias from RSV sF-specific IgG1 and IgG2a serum titers” value (RSV sF) is reported as “maintained the Th1 bias”, the “F-specific IFNγ ELISPOT responses” value (RSV sF protein [1]; 10 μg RSV sF) is reported as 64.00 SFU/million cells and the “F-specific IFNγ ELISPOT responses” value (RSV sF protein [1]; 100 μg RSV sF) is reported as 87.78 SFU/million cells. The “animals per group with titers below the limit of detection” value (RSV A2) was 1-2, the “animals with ≧4-fold rise in IgG titers at Day 183 compared to Day 169” value (RSV sF protein [2]; 4 animals per group) was 2 of 4 and the “geomean anti-F IgG titer” value (RSV sF protein [2]; Day 42, 100 μg RSV sF at days 0 and 28) was 10.45±2.68 log 2. The “geomean anti-F IgG titer” value (RSV sF protein [2]; Day 183, 14 days post booster at Day 169) was 12.55±2.16 log 2.
